Test [1] has as its target Serine/threonine-protein kinase ATR (Homo sapiens, UniProt Q13535).
Test [2] addresses T1, Serine/threonine-protein kinase LATS1 (Homo sapiens, UniProt O95835).
T1 sequence (O95835 whole entry): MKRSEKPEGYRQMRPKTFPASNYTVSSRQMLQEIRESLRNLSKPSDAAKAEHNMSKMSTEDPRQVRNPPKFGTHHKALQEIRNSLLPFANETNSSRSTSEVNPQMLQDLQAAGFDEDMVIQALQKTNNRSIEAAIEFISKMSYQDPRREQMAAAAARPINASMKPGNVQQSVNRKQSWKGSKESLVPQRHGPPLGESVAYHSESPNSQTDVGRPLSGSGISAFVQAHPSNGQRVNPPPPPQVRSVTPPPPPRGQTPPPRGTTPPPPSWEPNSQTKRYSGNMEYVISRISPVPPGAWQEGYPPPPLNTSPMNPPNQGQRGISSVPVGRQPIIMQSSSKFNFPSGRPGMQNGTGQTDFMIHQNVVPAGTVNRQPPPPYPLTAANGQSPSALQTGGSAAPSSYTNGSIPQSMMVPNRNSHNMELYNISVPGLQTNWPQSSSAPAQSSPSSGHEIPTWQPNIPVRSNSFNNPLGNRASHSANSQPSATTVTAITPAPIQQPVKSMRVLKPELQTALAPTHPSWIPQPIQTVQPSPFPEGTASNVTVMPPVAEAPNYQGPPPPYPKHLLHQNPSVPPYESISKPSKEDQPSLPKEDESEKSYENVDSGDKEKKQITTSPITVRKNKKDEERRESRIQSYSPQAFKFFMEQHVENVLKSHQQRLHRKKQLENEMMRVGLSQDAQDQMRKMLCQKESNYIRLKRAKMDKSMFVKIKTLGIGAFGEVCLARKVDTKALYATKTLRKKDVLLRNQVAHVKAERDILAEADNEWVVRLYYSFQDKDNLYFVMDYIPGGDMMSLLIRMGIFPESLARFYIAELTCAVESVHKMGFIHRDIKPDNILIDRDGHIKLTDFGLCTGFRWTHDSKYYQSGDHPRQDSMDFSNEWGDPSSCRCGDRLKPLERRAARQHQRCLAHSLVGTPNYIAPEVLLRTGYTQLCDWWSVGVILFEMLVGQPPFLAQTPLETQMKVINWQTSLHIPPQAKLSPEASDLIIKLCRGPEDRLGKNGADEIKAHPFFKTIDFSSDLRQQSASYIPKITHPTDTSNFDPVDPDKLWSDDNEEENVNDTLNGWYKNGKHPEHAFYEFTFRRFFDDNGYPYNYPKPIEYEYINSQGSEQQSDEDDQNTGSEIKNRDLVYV

The target of test [3] is GTP-binding protein 4 (Homo sapiens, UniProt Q9BZE4).
For test [4], the target named is Mitogen-activated protein kinase 11 (Homo sapiens, UniProt Q15759).
Mitogen-activated protein kinase 11, sequence (Q15759 whole entry): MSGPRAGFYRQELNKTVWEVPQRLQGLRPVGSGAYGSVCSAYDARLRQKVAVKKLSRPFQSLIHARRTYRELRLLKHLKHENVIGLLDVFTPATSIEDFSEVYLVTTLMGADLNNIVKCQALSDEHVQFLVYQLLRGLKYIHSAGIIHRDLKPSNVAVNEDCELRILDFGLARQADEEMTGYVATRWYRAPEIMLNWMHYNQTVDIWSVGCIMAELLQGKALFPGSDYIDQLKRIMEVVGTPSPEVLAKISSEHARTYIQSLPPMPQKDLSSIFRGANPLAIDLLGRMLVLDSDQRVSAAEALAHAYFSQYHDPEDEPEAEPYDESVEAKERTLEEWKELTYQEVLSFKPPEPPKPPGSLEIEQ
Test [5] deals with GTP-binding nuclear protein Ran (Homo sapiens, UniProt P62826).
Test [6] addresses Tyrosine-protein kinase CSK (Homo sapiens, UniProt P41240).
Test [7] concerns the target T2, Mitogen-activated protein kinase kinase kinase kinase 3 (Homo sapiens, UniProt Q8IVH8).
T2 sequence (Q8IVH8 whole entry): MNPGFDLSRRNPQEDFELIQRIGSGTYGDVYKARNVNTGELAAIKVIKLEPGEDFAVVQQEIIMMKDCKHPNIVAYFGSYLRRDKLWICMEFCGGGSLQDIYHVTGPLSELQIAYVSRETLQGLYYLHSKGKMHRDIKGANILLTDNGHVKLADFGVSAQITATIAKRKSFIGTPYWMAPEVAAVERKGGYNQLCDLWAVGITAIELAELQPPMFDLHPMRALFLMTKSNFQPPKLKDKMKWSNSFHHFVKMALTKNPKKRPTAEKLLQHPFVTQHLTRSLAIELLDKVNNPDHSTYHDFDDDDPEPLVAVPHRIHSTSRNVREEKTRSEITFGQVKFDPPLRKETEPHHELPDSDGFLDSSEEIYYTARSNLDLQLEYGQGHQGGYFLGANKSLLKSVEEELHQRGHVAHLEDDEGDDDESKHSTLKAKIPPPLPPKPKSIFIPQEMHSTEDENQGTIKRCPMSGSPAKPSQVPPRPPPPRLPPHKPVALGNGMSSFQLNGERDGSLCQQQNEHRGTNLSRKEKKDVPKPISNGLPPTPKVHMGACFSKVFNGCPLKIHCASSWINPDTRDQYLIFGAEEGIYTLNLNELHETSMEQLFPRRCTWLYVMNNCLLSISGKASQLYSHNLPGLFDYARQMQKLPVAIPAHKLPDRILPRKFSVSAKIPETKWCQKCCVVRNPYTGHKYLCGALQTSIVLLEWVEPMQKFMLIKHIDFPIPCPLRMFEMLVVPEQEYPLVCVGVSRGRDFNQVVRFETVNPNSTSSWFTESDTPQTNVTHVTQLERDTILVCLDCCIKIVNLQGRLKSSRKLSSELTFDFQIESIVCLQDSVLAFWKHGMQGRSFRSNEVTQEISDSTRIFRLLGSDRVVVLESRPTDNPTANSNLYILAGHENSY

The target of test [8] is Mitogen-activated protein kinase 14 (Homo sapiens, UniProt Q16539).
Mitogen-activated protein kinase 14, sequence (Q16539 whole entry): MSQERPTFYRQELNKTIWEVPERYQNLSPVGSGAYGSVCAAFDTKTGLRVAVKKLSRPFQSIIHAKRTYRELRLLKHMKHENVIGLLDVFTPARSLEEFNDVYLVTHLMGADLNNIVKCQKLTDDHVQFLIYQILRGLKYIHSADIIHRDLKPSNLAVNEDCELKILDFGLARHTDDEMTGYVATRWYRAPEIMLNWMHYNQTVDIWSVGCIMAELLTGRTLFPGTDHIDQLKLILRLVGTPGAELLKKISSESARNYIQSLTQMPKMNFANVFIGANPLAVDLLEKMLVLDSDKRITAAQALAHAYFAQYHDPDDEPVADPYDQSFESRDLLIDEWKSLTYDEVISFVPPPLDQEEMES
The target of test [9] is Glycogen synthase kinase-3 beta (Homo sapiens, UniProt P49841).
Glycogen synthase kinase-3 beta, sequence (P49841 whole entry): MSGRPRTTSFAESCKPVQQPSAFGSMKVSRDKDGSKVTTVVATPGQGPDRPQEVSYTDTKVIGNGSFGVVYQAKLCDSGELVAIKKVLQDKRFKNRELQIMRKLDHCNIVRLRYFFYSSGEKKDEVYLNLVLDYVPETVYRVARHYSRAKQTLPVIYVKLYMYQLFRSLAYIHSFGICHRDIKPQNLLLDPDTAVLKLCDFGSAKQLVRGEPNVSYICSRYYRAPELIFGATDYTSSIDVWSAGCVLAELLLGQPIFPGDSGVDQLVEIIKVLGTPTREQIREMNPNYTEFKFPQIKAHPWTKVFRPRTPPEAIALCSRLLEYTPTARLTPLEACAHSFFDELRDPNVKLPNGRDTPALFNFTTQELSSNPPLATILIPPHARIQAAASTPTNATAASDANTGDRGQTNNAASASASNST

SMILES strings stand for the structures. Calls of active or inactive are those of the source. For most assays here, no stated cut-off is given here; in the data, actives have a measured Kd and inactives only a lower limit.

Serine/threonine-protein kinase ATR, sequence (Q13535 whole entry): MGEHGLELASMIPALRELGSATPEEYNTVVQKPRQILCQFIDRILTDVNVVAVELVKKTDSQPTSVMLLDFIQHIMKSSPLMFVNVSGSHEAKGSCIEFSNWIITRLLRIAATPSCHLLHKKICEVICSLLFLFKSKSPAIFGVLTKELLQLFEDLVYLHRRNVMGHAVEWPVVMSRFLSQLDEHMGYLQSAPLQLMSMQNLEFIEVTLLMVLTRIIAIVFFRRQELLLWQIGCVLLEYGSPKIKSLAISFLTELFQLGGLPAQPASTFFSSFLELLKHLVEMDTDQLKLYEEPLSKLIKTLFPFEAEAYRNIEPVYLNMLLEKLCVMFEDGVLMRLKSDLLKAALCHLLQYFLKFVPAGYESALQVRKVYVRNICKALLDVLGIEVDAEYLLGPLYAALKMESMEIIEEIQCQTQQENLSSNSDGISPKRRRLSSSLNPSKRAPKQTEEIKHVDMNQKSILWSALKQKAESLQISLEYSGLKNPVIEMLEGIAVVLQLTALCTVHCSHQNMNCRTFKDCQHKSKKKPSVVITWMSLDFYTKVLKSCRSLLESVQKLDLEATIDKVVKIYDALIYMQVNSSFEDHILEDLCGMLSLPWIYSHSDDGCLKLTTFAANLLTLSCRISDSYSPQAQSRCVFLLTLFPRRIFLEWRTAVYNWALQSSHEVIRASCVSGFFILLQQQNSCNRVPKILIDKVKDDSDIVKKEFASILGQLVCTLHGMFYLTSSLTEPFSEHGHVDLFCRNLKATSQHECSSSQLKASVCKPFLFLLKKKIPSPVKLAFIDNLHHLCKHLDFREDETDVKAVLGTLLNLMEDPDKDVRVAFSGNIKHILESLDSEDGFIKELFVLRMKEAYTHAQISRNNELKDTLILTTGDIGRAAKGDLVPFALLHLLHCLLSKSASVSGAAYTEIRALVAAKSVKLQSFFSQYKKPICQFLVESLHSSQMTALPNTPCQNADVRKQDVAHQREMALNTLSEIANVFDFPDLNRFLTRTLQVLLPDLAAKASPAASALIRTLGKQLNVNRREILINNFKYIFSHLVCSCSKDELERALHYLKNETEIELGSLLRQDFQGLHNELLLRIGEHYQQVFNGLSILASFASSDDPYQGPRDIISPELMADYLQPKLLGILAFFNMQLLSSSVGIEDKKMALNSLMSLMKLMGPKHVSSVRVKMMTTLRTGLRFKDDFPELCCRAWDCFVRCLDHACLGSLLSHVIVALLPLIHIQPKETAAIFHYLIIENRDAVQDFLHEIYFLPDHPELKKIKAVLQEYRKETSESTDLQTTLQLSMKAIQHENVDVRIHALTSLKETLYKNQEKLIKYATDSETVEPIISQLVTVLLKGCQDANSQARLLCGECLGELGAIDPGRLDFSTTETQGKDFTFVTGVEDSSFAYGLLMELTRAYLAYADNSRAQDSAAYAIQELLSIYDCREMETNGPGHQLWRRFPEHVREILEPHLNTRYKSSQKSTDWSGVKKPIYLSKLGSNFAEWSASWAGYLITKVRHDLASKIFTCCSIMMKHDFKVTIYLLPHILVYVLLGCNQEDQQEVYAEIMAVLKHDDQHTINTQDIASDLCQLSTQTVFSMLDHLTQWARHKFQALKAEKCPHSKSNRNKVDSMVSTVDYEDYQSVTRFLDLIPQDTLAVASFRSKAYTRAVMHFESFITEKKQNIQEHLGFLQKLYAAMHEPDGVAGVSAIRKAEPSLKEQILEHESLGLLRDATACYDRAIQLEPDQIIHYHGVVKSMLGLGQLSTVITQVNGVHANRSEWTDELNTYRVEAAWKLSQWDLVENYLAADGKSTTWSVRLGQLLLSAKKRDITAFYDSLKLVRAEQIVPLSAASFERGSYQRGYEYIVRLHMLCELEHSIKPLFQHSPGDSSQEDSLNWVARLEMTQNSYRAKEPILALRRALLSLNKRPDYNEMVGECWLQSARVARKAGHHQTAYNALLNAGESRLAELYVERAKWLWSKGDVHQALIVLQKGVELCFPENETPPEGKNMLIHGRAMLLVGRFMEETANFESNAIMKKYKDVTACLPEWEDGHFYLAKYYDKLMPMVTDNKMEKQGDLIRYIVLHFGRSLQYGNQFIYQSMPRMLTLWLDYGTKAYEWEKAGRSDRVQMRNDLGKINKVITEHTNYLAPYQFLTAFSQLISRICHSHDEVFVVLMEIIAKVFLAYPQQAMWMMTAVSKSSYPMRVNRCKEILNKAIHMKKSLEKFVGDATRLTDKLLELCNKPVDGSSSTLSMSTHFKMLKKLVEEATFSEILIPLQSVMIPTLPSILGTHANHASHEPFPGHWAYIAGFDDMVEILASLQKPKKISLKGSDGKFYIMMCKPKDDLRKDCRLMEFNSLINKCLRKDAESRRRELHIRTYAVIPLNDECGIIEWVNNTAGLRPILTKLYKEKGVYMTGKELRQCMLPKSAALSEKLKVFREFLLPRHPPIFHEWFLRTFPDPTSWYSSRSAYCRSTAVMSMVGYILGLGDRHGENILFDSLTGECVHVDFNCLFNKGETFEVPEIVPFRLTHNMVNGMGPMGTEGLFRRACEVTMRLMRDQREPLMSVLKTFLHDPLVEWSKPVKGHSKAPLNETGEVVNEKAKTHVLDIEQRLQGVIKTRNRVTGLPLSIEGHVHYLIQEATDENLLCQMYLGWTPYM
Tyrosine-protein kinase CSK, sequence (P41240 whole entry): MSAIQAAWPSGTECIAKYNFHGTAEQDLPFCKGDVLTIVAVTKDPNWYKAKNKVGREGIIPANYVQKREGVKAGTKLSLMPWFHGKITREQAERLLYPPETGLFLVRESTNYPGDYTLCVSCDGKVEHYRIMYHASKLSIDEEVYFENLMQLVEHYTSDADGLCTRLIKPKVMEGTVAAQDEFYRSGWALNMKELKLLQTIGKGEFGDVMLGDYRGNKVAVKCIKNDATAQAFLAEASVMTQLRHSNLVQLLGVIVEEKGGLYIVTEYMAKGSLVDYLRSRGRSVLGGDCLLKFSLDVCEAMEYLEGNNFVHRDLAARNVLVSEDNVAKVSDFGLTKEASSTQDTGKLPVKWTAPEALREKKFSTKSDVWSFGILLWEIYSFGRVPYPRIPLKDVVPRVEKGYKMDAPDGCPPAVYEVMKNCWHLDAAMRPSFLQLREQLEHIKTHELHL

On to `CCN(CCCOc1ccc2c(Nc3cc(CC(=O)Nc4cccc(F)c4)n[nH]3)ncnc2c1)CCOP(=O)(O)O` [BARASERTIB], for which the Kd in test [1], in test [2], in test [3], in test [4], in [5] and in [6] was > 30 µM (inactive) in each case. Besides, the Kd – broadly, the equilibrium constant for the complex coming apart – in test [7] was > 30 µM (inactive).

With `C=CCn1c(=O)c2cnc(Nc3ccc(N4CCN(C)CC4)cc3)nc2n1-c1cccc(C(C)(C)O)n1` [ADAVOSERTIB], the Kd in test [1], in [2], in test [3], in [4], in [5] and in test [6] was > 30 µM (inactive) each time. Moreover, in [7], the Kd is > 30 µM (inactive).

As for `COCCN1CCN(Cc2ccc(-c3n[nH]c4c3C(=O)c3c(NC(=O)NN5CCOCC5)cccc3-4)cc2)CC1` [RGB-286638], the Kd in test [8], in test [1], in [2], in [3], in [4] and in test [5] was > 30 µM (inactive) throughout. For the same molecule, the Kd in test [6] is > 30 µM (inactive); in test [7], > 30 µM (inactive); in test [9] it was 0.008 µM (active).

Consider `O=c1[nH]c([C@@H]2CCCN2)nc2c1oc1ccc(Cl)cc12`, for which the Kd in [1], in [2], in test [3], in test [4], in test [5] and in test [6] was > 30 µM (inactive) throughout. Further, the Kd in test [7] was > 30 µM (inactive); in test [9], 8.79 µM.

As for `COc1cc2c(Oc3ccc4[nH]c(C)cc4c3F)ncnc2cc1OCCCN1CCCC1` [CEDIRANIB], the Kd in test [1], in test [3] and in test [5] was > 30 µM (inactive) each time.

With `CCN1CCN(Cc2ccc(Nc3ncc(F)c(-c4cc(F)c5nc(C)n(C(C)C)c5c4)n3)nc2)CC1` [ABEMACICLIB], the Kd in test [8], in test [1], in test [2], in test [3], in test [4] and in test [5] was > 30 µM (inactive) in each case. The Kd in [6] and in [7] was > 30 µM (inactive) each time.

For `CCOc1ccn(-c2ccc(F)cc2)c(=O)c1C(=O)Nc1ccc(Oc2ccnc(N)c2Cl)c(F)c1` [BMS-777607], the Kd in test [8], in [1], in test [2], in [4], in [5] and in test [6] was > 30 µM (inactive) each time. Besides, the Kd in test [7] was > 30 µM (inactive).

Consider `NC(=O)c1ccc(N(C(N)=O)c2c(F)cccc2F)nc1-c1ccc(F)cc1F` [VX-702], for which the Kd in test [1], in test [2], in test [3], in test [5], in test [6] and in test [7] was > 30 µM (inactive) each time. Further, in [9], the Kd is > 30 µM (inactive).

With `C[C@@]1(C(=O)Nc2ccc(F)nc2)CCCN1c1nc(Nc2cc(C3CC3)n[nH]2)c2cccn2n1` [BMS-754807], the Kd in [1], in [3] and in test [5] was > 30 µM (inactive) in each case.

With `C=CC(=O)Nc1cccc(Nc2nc(Nc3ccc(N4CCN(C(C)=O)CC4)cc3OC)ncc2C(F)(F)F)c1` [ROCILETINIB], the Kd in test [8], in [1], in test [2], in [3], in test [5] and in test [6] was > 30 µM (inactive) each time. Also, the Kd in test [7] and in test [9] was > 30 µM (inactive) each time.

In the case of `C=CC(=O)Nc1cc(Nc2nccc(-c3cn(C)c4ccccc34)n2)c(OC)cc1N(C)CCN(C)C` [OSIMERTINIB], the Kd in test [8], in test [2], in test [3], in test [4], in test [5] and in test [6] was > 30 µM (inactive) each time. Besides, the Kd in test [7] and in test [9] was > 30 µM (inactive) each time.

On to `NC[C@@](O)(c1ccc(Cl)cc1)c1ccc(-c2cn[nH]c2)cc1` [AT-13148], for which the Kd in test [8] was > 30 µM (inactive); in test [2], 0.027 µM (active); in [3], > 30 µM (inactive); in test [4] it was > 30 µM (inactive); in test [5], > 30 µM (inactive); in [6], > 30 µM (inactive). In addition, the Kd in [7] and in test [9] was > 30 µM (inactive) each time.

Turning to `O=S(=O)(c1cccc2c(O)nccc12)N1CCCNCC1` [HYDROXYFASUDIL], the Kd in [1], in [2], in test [3], in test [4], in test [5] and in test [6] was > 30 µM (inactive) each time. For the same molecule, the Kd in test [7] and in test [9] was > 30 µM (inactive) each time.

For the molecule `O=C(O)c1ccc2c(c1)nc(Nc1cccc(Cl)c1)c1ccncc12` [SILMITASERTIB], the Kd in [8], in test [1], in [2], in [4], in test [5] and in test [6] was > 30 µM (inactive) in each case. Besides, the Kd in test [7] was > 30 µM (inactive).

For the molecule `Cc1c(NC(=O)OC[C@@H]2COCCN2)cn2ncnc(Nc3ccc4c(cnn4Cc4cccc(F)c4)c3)c12` [AC-480], the Kd in test [8], in test [2], in test [3], in test [4], in test [5] and in [6] was > 30 µM (inactive) each time. In addition, the Kd in test [7] and in [9] was > 30 µM (inactive) throughout.

In the case of `Cn1c(=O)n(-c2ccc(C(C)(C)C#N)cc2)c2c3cc(-c4cnc5ccccc5c4)ccc3ncc21` [DACTOLISIB], the Kd in [1], in [3], in test [4], in test [5], in test [6] and in test [7] was > 30 µM (inactive) in each case.

The values are drawn from ChEMBL document CHEMBL3991601, “The target landscape of clinical kinase drugs” (Science, 2017).
